The experiment has as its system IFNα-induced pSTAT5 (pY694) in CD3 positive cells of human whole blood. As to the kind of experiment: IFNα-Induced STAT Phosphorylation in Human Whole Blood. Type of experiment: cell-based. The note with it: Homo sapiens, 1 h compound incubation, 1000 U/mL recombinant human IFNα A/D for 15 min, pSTAT5 in CD3 positive population, read-out: Human WB IFNα-Induced Stat Phosph. (IC50). The method, boiled down:
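Read-out is median fluorescence intensity of pSTAT5 (pY694) in the CD3-positive gate, by flow cytometry after fix/lyse and permeabilization. Before that, whole human blood anticoagulated with EDTA or ACD-A received compound for an hour and 1000 U/mL IFNα A/D for 15 min.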

Turning to `[2H]C([2H])([2H])NC(=O)c1cnc(Nc2ccc(OC)nn2)cc1Nc1cccc(-c2csc(C(=O)NCCOC)n2)c1OC` [Example 567], the IC50 came out at 0.7 µM.

For `[2H]C([2H])([2H])NC(=O)c1nnc(NC(=O)C2CC2)cc1Nc1cccc(-c2noc(C(=O)NC3CCC(N(C)C)CC3)n2)c1OC` (stereo not drawn) [Example 24], the half-maximal inhibitory concentration (IC50) was 0.24 µM.

For the compound `[2H]C([2H])([2H])NC(=O)c1nnc(NC(=O)C2CC2)cc1Nc1cccc(-c2ncc(C(=O)NCC34CCN(CC3)CC4)s2)c1OC` [Example 287], the IC50 came to 1.26 µM.

Regarding `[2H]C([2H])([2H])NC(=O)c1nnc(NC(=O)C2CC2)cc1Nc1cccc(-c2nc(CN(CCOC)CCOC)no2)c1OC` [Example 175], the IC50 was 0.66 µM.

For `[2H]C([2H])([2H])NC(=O)c1nnc(NC(=O)C2CC2)cc1Nc1cccc(-c2cc(C(=O)N3CCN(C)CC3)n(C)n2)c1OC` [Example 480], the half-inhibitory concentration (IC50) came to 0.07 µM.

`COc1c(Nc2cc(NC(=O)C3CC3)nnc2C(N)=O)cccc1-c1noc(C(=O)NCCC2CCCN2C)n1` (stereo not drawn) [Example 37]: the IC50 was found to be 0.018 µM.

As for `[2H]C([2H])([2H])NC(=O)c1nnc(NC(=O)C2CC2)cc1Nc1cccc(-c2nc(CN3CCCC3)no2)c1OC` [Example 209], the IC50 is 1.37 µM.

Turning to `COc1c(Nc2cc(NC(=O)C3CC3)nnc2C(N)=O)cccc1-c1noc(CNS(C)(=O)=O)n1` [Example 38], the IC50 was found to be 0.03 µM.

For `[2H]C([2H])([2H])NC(=O)c1nnc(NC(=O)C2CC2)cc1Nc1cccc(-c2nc([C@H](NC(C)=O)[C@H](C)O)no2)c1OC` [Example 203], the IC50 came to 0.46 µM.

As to `COc1c(Nc2cc(NC(=O)C3CC3)nnc2C(N)=O)cccc1-c1noc([C@@H]2[C@H](O)CCN2S(C)(=O)=O)n1` [Example 66], the half-inhibitory concentration (IC50) came out at 0.03 µM.

As for `[2H]C([2H])([2H])NC(=O)c1nnc(NC(=O)C2CC2)cc1Nc1cccc(-c2ccn(CCNC(=O)COC)n2)c1OC` [Example 469], the concentration for half-maximal inhibition (IC50) amounted to 0.2 µM.

For `COc1c(Nc2cc(NC(=O)C3CC3)nnc2C(N)=O)cccc1-c1noc(CN2CCCS2(=O)=O)n1` [Example 68], the concentration for half-maximal inhibition (IC50) amounted to 0.023 µM.

The IC50 is the concentration at which inhibition is half-maximal.

These data come from US12240840B2, “Amide-substituted heterocyclic compounds for the treatment of conditions related to the modulation of IL-12, IL-23 and/or IFN-alpha” (BRISTOL-MYERS SQUIBB COMPANY, priority 2018, dated 2025).
